Measurements published in patent US20230212202A1, “TREATMENT OF MGMT DEFICIENT CANCER WITH 2-FLUOROETHYL-SUBSTITUTED NITROSOUREAS AND OTHER COMPOUNDS” (YALE UNIVERSITY, priority 2021, published 2023).

Legend:
[1] = test system: PD20 cells, FANCD2-/- or +FANCD2; assay: Short-term viability assay; type: cell-based, human; details: PD20 FANCD2-/- vs +FANCD2
LN229 MGMT-/MMR- cells [2] = assay: IR alkaline comet assay; type: cell-based, human; details: 200 µM, 2-24 h
LN229 MGMT-/MMR- cells [3] = assay: Short-term cell viability assay; type: cell-based, human; details: Homo sapiens, LN-229
[4] = test system: LN229 MGMT-/MMR- flank tumors; assay: Xenograft flank tumor model; type: in vivo, mouse
LN229 MGMT-/MMR+ cells [5] = assay: IR alkaline comet assay; type: cell-based, human
[6] = test system: LN229 MGMT+/-, MMR+/- cells; assay: Cell cycle analysis; type: cell-based, human; details: 20 µM
Protocol: Cell Cycle Analysis. Cell cycle analysis was performed using integrated Hoechst nucleic acid dye fluorescence intensity as previously described (51). Briefly, integrated Hoechst fluorescence intensity was log2 transformed and histograms from DMSO-treated cells were used to identify the centers of the 2 N and 4 N DNA peaks. These values were used to normalize the 2 N DNA peak to 1 and the 4 N DNA peak to 2. Cells were then classified by normalized log2 DNA content as G1 (0.75-1.25), S (1.25-1.75), or G2 (1.75-2.5) phase cells. The percentage of cells within each phase of the cell cycle was determined for each treatment condition. The three sets of Hoechst-stained cells corresponding to the three separate DNA foci stains were treated as three independent analyses.

LN229 MGMT-/MMR+ cells [7] = assay: Genomic DNA denaturing gel electrophoresis; type: cell-based, human
Protocol: Genomic DNA Denaturing Gel Electrophoresis. Assay was adapted from N. Bossuet-Greif et al., The Colibactin Genotoxin Generates DNA Interstrand Cross-Links in Infected Cells. mBio 9, (2018). Cells were trypsinized, washed with 1X PBS, and stored at -80° C. prior to processing. Genomic DNA was extracted with the DNeasy Blood & Tissue Kit (Qiagen) per kit protocol. A 0.7% agarose gel was prepared in 100 mM NaCl-2mM EDTA (pH 8) and soaked in 40 mM NaOH-1 mM EDTA running buffer for 2 h. Genomic DNA (400 ng/well) was then loaded in 1X BlueJuice loading buffer (Invitrogen) and subjected to electrophoresis at 2 V/cm for 30 min, followed by 3 V/cm for 2 h. The gel was neutralized in 150 mM NaCl-100 mM Tris (pH 7.4) for 30 min, twice, and then stained with 1X SYBR Gold in 150 mM NaCl-100 mM Tris (pH 7.4) for 90 min. Imaging was performed on a ChemiDoc XRS+ Molecular Imager (Bio-Rad).

[8] = test system: linearized pUC19 plasmid DNA; assay: Melting temperature assay; type: biochemical; details: 100 or 500 µM, 3 h
[9] = test system: LN229 MGMT+/-, MMR+/- cells; assay: Micronuclei analysis; type: cell-based, human; details: 20 µM, 48 h
From the text: Micronuclei Analysis. An automated image analysis pipeline was developed by YCMD using InCell Analyzer software to quantify micronuclei formation. Nuclei and micronuclei were segmented based on Hoechst nucleic acid dye staining channel. A perinuclear margin was applied around the nuclei to approximate the extent of the cytoplasm and identify micronuclei associated with the parent nucleus. Cells with nuclei associated with at least 1 micronucleus were considered positive.

[10] = test system: LN229 MGMT+/- cells with shRNA targeting MSH6, MLH1, PMS2, or MSH3; assay: Short-term viability assay, MMR shRNA lines; type: cell-based, human; details: shMSH6, shMLH1, shPMS2, shMSH3

## NC(=O)c1ncn2c(=O)n(CCF)nnc12 [KL-50]
[1]
  sensitivity of FANCD2-deficient cells: hypersensitive
LN229 MGMT-/MMR- cells [2]; 0 Gy
  DNA damage in unirradiated samples, time course: maximal damage at 2 h
LN229 MGMT-/MMR- cells [2]; 10 Gy
  DNA mobility after IR, time course: time-dependent decrease in DNA mobility
LN229 MGMT-/MMR- cells [3]
  IC50: ~20 µM
[4]; 5 mg/kg MWF × 3 weeks, P.O.
  tumor growth: potently suppressed tumor growth
[4]; Kaplan-Meier
  increase in median OS vs TMZ: greater than 5 week
[4]; Kaplan-Meier, 5 mg/kg MWF × 3 weeks
  median OS: greater than 15 weeks
LN229 MGMT-/MMR+ cells [5]; 200 µM, 24 h, 10 Gy
  IR-induced comet tail (ICL detection): reduced the %DNA in the tail to levels similar to those seen for 0.1 µM MMC
LN229 MGMT-/MMR+ cells [5]; TMZ, KL-50 200 µM, MMC 0.1 or 50 µM
  comet tailing in the absence of IR: induced tailing
[6]; MGMT+/MMR+ cells
  G2 arrest: moderate G2 arrest
[6]; MGMT-/MMR+ cells
  G2 arrest: increasing G2 arrest on progression from 24 to 48 h
[6]; MGMT-/MMR- cells
  G2 arrest: attenuated G2 arrest
LN229 MGMT-/MMR+ cells [7]
  crosslinked genomic DNA: presence of crosslinked DNA
[8]
  DNA melting temperature: comparable changes in measured DNA melting temperature
[9]
  micronuclei formation: significant increase in micronuclei
[10]
  activity in MGMT- LN229 cells lacking other MMR proteins: confirmed
